Here are results for 5 compounds from patent US10131619B2, “α-Asary-laldehyde ester, preparation method therefor, and application thereof” (NORTHWEST UNIVERSITY, priority 2014, dated 2018).

Series [1] has as its system mice. The settings on record: Wang S. S. 1995; cited from earlier work.
Another series has as its system KM mice. In words: Maximal Electroshock Seizure (MES) test. It counts as in vivo. The settings on record: for MES: 6 mice. The procedure: (§1) The antiepileptic pharmacological tests were carried out using the anti-epileptic drug development program implemented by the National Institutes of Health (NIH), comprising the Maximal Electroshock Seizure (MES) for evaluating antiepileptic activity and the Rotarodtest for examining neurotoxicity. In order to further study and evaluate the pharmacological mechanism of anticonvulsant effect in different chemical models, two classic chemical model pentarotetrazole and 3-mercaptopropionic acid were used.
(1) Maximal Electroshock Seizure (MES)
Procedure: KM mice were subjected to the following preliminary screening before they were tested, and only qualified mice were screened for the next experiment. The screening method was performed as follows: the day before the test, the test mice electrically stimulated at 15V, 60 Hz, wherein two electrodes were clamped in each ear of the mice and powered for 0.45 seconds. Mice with hind limb rigidity were included in the experimental mice and used for later experiments. The Maximal Electroshock Seizure tolerance test was performed as follows: mice were administered intragastrically with the test compound after it is dissolved, and then at 0.25 h, 0.5 h, 1 h, 2 h, 3 h and 4 h after the administration, stimulated with the electrodes in their ears at 15V, 60 Hz electric stimulation for 0.45 s, respectively. […] According to the dosing regimen, concentration gradient was designed and the mice were administered with the test compound at different concentration gradient and observed for the anticonvulsant activity. Finally, the half effective dose of the test compound at the maximum anticonvulsant activity was calculated according to the following equation: ED50=1 g^−1[Xm−i(ΣP−0.5)] SX50=i(ΣP−ΣP^2/n−1)^1/2 • 95% confidence limit for ED50=1 g^−1(1 gED50±1.96 SX50) • wherein the meanings of the symbols in the equation are as follows: • Xm common logarithm for the maximum dose; • i common logarithm for the ratio between doses • p positive rate for each group, expressed in decimal places • n the number of animals per group • SX50 standard error of 1 gED50

Series [2] in a line: Neurotoxicity test (Rotarod test). It counts as in vivo. The note with it: KM, mouse, in vivo, po. The protocol: as §1
(§2) Procedure: experimental mice were place on a rotating bar fatigue device rotating at 16 revolutions per minute at 0.25 h, 0.5 h, 1 h, and 2 h after intragastric administration, respectively. […] According to the dosing regimen, concentration gradient was designed and the mice was administered with the test compound at different concentration gradient and observed for the anticonvulsant activity. Half toxic dose (TD50) was calculated according to the following equation: TD50=1 g^−1[Xm−i(ΣP−0.5)] SX50=i(ΣP−σP^2/n−1)^1/2 • 95% confidence limit for TD50=1 g^−1(1 gTD50±1.96 SX50) • wherein the meanings of the symbols in the equation are as follows: • Xm common logarithm for the maximum dose; • i common logarithm for the ratio between doses • p positive rate for each group, expressed in decimal places • n the number of animals per group • SX50 standard error of 1 gTD50
(In the rotarod test animals must keep their balance on a rotating rod.)

The subject of series [3] is mice. Briefly: Neurotoxicity test (Rotarod test). It counts as in vivo. The procedure:
as §1, §2

The subject of series [4] is 3-mercaptopropionic acid-induced epilepsy mice model. In words: 3-mercaptopropionic acid-induced epilepsy experimental model. It is filed as in vivo. The settings on record: for clonic seizures / latency / mortality rate / tonic seizures: n=6. From the text:
(4) 3-mercaptopropionic Acid-induced Epilepsy Experimental Model

In series [5] the test system is pentylenetetrazole-induced epilepsy mice model. Briefly: Pentylenetetrazole-induced epilepsy experimental model. The settings on record: for clonic seizures / latency / mortality rate / tonic seizures: n=6.
Procedure: In order to deduce the possible anticonvulsant mechanism of α-Asaronol 3,4,5-trimethoxycinnamate, in this study, pentylenetetrazole, 3-mercaptopropionic acid and other chemical test modes were used to initially evaluate the anticonvulsant activity of the test compound (i.g: 160 mg/kg, 80 mg/kg, 40 mg/kg).
(3) Pentylenetetrazole-induced Epilepsy Experimental Model
Procedure: mice were randomly divided into five groups: treatment group (i.g: 160 mg/kg, 80 mg/kg, 40 mg/kg), control group and blank group (n=6). The treatment group was intragastrically administrated with the test compound, the control group with the positive drug carbamazepine, and the blank group with physiological saline. After 30 minutes, the mice were intragastrically administrated with pentylenetetrazole at 200 mg/kg. Each test animal was placed in one cage and observed for 60 minutes. The latency of clonic seizures, the number of clonic seizures, the number of tonic seizures, and the number of deaths for mice of each group were recorded.

Marks after values point to notes of the source that are not given here.

Regarding `COc1cc(C=CC(=O)O)cc(OC)c1OC` [TMCA, 3,4,5-trimethoxycinnamic acid], in the series on mice [1], the “time of pentobarbital sodium-induced sleep in mice” value (“time … in mice” for short) was “prolong”.

As to `COc1ccc(C=CC(=O)O)cc1` [PMCA, p-methoxycinnamic acid], the “time … in mice” value in the series on mice [1] is listed as “prolong”.

With `COC(=O)C=Cc1cc(OC)c(OC)c(OC)c1` [M-TMCA, methyl 3,4,5-trimethoxycinnamic acid], the “time … in mice” value with mice [1] is “prolong”.

Take `COc1cc(OC)c(OC)cc1/C=C/COC(=O)/C=C/c1cc(OC)c(OC)c(OC)c1`: the ED50 – broadly, the dose that gives a 50% effect, or the effect in half of the subjects – in the series with KM mice (Mus musculus, po, MES, mice, i.g., 95% confidence limit 63.1-128.8, read-out: ED50 (half effective dose)) was determined as 90.3 mg/kg. The MES is 4/6 in the series with KM mice (i.g. 40 mg/kg, 0.25 h); 5/6 in the series with KM mice (i.g. 40 mg/kg, 0.5 h); 6/6 in the series with KM mice (i.g. 40 mg/kg, 1 h); 6/6 in the series on KM mice (i.g. 40 mg/kg, 2 h); 6/6 in the series with KM mice (i.g. 40 mg/kg, 3 h); 6/6 in the series with KM mice (i.g. 40 mg/kg, 4 h). Also, the MES was 3/6 in the series with KM mice (i.g. 56 mg/kg, 0.25 h); 4/6 with KM mice (i.g. 56 mg/kg, 0.5 h); 4/6 with KM mice (i.g. 56 mg/kg, 1 h); 5/6 in the series with KM mice (i.g. 56 mg/kg, 2 h); 5/6 in the series with KM mice (i.g. 56 mg/kg, 3 h); 5/6 with KM mice (i.g. 56 mg/kg, 4 h). Moreover, the MES in the series with KM mice (i.g. 78 mg/kg, 0.25 h) is on record as 3/6; in the series with KM mice (i.g. 78 mg/kg, 0.5 h), 3/6; with KM mice (i.g. 78 mg/kg, 1 h), 3/6; with KM mice (i.g. 78 mg/kg, 2 h), 3/6; in the series with KM mice (i.g. 78 mg/kg, 3 h), 4/6; in the series on KM mice (i.g. 78 mg/kg, 4 h) it was 4/6. Moreover, the MES is recorded as 2/6 in the series with KM mice (i.g. 110 mg/kg, 0.25 h); 1/6 with KM mice (i.g. 110 mg/kg, 0.5 h); 1/6 in the series on KM mice (i.g. 110 mg/kg, 1 h); 2/6 in the series with KM mice (i.g. 110 mg/kg, 2 h); 3/6 with KM mice (i.g. 110 mg/kg, 3 h); 3/6 in the series on KM mice (i.g. 110 mg/kg, 4 h). Further, the MES is 1/6^c in the series on KM mice (i.g. 154 mg/kg, 0.25 h after administration); 0 with KM mice (i.g. 154 mg/kg, 0.5 h); 1/6 with KM mice (i.g. 154 mg/kg, 1 h); 1/6 in the series with KM mice (i.g. 154 mg/kg, 2 h); 3/6 with KM mice (i.g. 154 mg/kg, 3 h); 3/6 with KM mice (i.g. 154 mg/kg, 4 h). In the series on KM mice (mice, i.g.), the “anticonvulsant activity in the Maximal Electroshock Seizure test (in words)” value is “good anticonvulsant activity”. Further, the TD50 (usually the dose at which the toxic effect under study appears in half of the subjects) in series [2] came out at 940 mg/kg. Moreover, the “PI, protection index (TD50/ED50)” value in the series with mice [3] (mice, i.g., rotarod TD50 / MES ED50) is 10.4. Also, in the series with mice [3] (mouse, in vivo), the “toxicity (in words)” value is “did not show significant toxicity”. The “effect on inhibiting the tonic seizure and reducing the mortality compared with carbamazepine” value is recorded as “comparable effect” in series [4] (160 mg/kg, 80 mg/kg) and “comparable effect” in series [5] (at the same dose). In addition, the “time of clonic seizure compared with the physiological saline group” value in series [4] (160 mg/kg, 80 mg/kg, p<0.05) is on record as “significantly prolong”; in series [5] (160 mg/kg, 80 mg/kg, 40 mg/kg, p<0.05), “significantly prolong”. In addition, the clonic seizures in series [4] (i.g. 40 mg/kg) was 100%; in series [4] (i.g. 80 mg/kg), 83.3%; in series [4] (i.g. 160 mg/kg), 50%; in series [5] (i.g. 40 mg/kg), 100%; in series [5] (i.g. 80 mg/kg) it was 83.3%; in series [5] (i.g. 160 mg/kg), 50%. Besides, the latency was found to be 185.3 ± 39.8 s in series [4] (i.g. 40 mg/kg); 192.8 ± 85.1 s in series [4] (i.g. 80 mg/kg); 241.5 ± 80.4 s in series [4] (i.g. 160 mg/kg, 30 min before 3-mercaptopropionic acid 60 mg/kg); 205.6 ± 40.5 s in series [5] (i.g. 40 mg/kg); 253.6 ± 58.2 s in series [5] (i.g. 80 mg/kg); 370.0 ± 84.8 s in series [5] (i.g. 160 mg/kg, 30 min before pentylenetetrazole 200 mg/kg). Further, the mortality rate in series [4] (i.g. 40 mg/kg) is 50%; in series [4] (i.g. 80 mg/kg), 33.3%; in series [4] (i.g. 160 mg/kg) it was 33.3%; in series [5] (i.g. 40 mg/kg) it was 100%; in series [5] (i.g. 80 mg/kg) it was 66.7%; in series [5] (i.g. 160 mg/kg), 16.7%. In addition, the tonic seizures in series [4] (i.g. 40 mg/kg) was found to be 50%; in series [4] (i.g. 80 mg/kg), 33.3%; in series [4] (i.g. 160 mg/kg), 33.3%; in series [5] (i.g. 40 mg/kg), 50%; in series [5] (i.g. 80 mg/kg), 33.3%; in series [5] (i.g. 160 mg/kg), 33.3%. For the same compound, the “3-mercaptopropionic acid-induced seizures (in words)” value in series [4] (mouse, in vivo) is on record as “moderately reduce”.

`NC(=O)N1c2ccccc2C=Cc2ccccc21` [carbamazepine, reference compound]: in series [4] (i.g. 83 mg/kg), the clonic seizures was found to be 100%, the latency is reported as 277.2 ± 93.1 s, the mortality rate is 33.3% and the tonic seizures came out at 33.3%. In series [5] (i.g. 83 mg/kg), this compound displayed a clonic seizures of 100%, a latency of 476.8 ± 100.5 s, a mortality rate of 50% and a tonic seizures of 33.3%.
